Data taken from paper PMC8617031, “Development of a BCL-xL and BCL-2 dual degrader with improved anti-leukemic activity,” (Nature Communications, 2021).
“And” between values parts separate entries of the source, which are not always exact repeats. Equal entries are not always repeated. Where two headings read alike, the source gives them in different places.

Target: T1, His-tagged BCL-xL (Homo sapiens, UniProt Q07817)
T1 construct: purchased Sigma-Aldrich SRP0187
Experiment: AlphaScreen competitive binary binding, BCL-xL (biotin-BAD peptide)
Conditions: for inhibition at 0.000305176 µM / inhibition at 0.0012207 µM / inhibition at 0.00488281 µM / inhibition at 0.0195312 µM / inhibition at 0.078125 µM / inhibition at 0.3125 µM / inhibition at 1.25 µM / inhibition at 5 µM: read-out: Alpha signal normalised to Maximum/Minimum (inhibition)
Experimental: The reagents were diluted in a buffer containing 250 mM HEPES pH 7.5, 1 M NaCl, 1% BSA, and 0.05% Tween-80. His-tagged BCL-xL (0.5 nM, Cat. No. SRP0187, Sigma-Aldrich) or BCL-2 (1 nM, Cat. No. SRP0186, Sigma-Aldrich) were incubated with serial diluted 753a or 753b and 2 nM biotin-tagged BAD (biotin-[…] amino-terminal, AnaSpec, for BCL-xL) or 10 nM BIM peptides (biotin-[…] N-terminal, AnaSpec, for BCL-2) to a final volume of 40 µl in a 96-well PCR plate. […] After incubation for 2 h, 5 µl 6× His-acceptor beads (Cat. No. AL128M, PerkinElmer) were added to each well at 20 µg/ml final concentration and incubated for 1 h. Then 5 µl streptavidin-donor beads were added (Cat. No. 6760002, PerkinElmer) to each well at 20 µg/ml final concentration and incubated for 45 min. At the end of the incubation period, 17 µl of each sample was transferred in adjacent wells of 384-well proxy plate (Cat. No. 6008280, PerkinElmer). The plate was scanned using the Alpha program on Biotek’s Synergy Neo2 multimode plate reader. The inhibition constant (Ki) was calculated using the non-linear regression, one site, competitive binding, Fit Ki function on GraphPad Prism 9 software, based on experimentally determined dissociation constant (Kd) for each protein–peptide pair.

T1 sequence (Q07817 whole entry): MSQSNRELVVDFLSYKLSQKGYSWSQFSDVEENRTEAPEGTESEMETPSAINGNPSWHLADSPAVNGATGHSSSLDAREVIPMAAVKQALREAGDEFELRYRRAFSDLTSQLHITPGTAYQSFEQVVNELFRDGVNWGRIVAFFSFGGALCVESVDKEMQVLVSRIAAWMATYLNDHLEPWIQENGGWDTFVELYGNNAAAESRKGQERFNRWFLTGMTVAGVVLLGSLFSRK

**Q.** For CC1(C)CCC(c2ccc(Cl)cc2)=C(CN2CCN(c3ccc(C(=O)NS(=O)(=O)c4ccc(N[C@H](CCN5CCOCC5)CSc5ccccc5)c(S(=O)(=O)C(F)(F)F)c4)cc3)CC2)C1 [ABT263, navitoclax], which “Alpha signal normalised to Maximum/Minimum (inhibition)” value (BCL-xL Rep-1, 0.000305176 uM, 0.000305176 µM) is on record?
**A.** 28.4807

**Q.** And the inhibition at 0.000305176 µM (BCL-xL Rep-1, 0.000305176 uM)?
**A.** 32%

**Q.** What about the “Alpha signal normalised to Maximum/Minimum (inhibition)” value (BCL-xL Rep-1, 0.0012207 uM, 0.0012207 µM) of the same compound?
**A.** 28.8475

**Q.** What about the inhibition at 0.0012207 µM (BCL-xL Rep-1, 0.0012207 uM) of the same compound?
**A.** 27.8%

**Q.** And the “Alpha signal normalised to Maximum/Minimum (inhibition)” value (BCL-xL Rep-1, 0.00488281 uM, 0.00488281 µM)?
**A.** 50.9941

**Q.** What about the inhibition at 0.00488281 µM (BCL-xL Rep-1, 0.00488281 uM) of the same compound?
**A.** 46.4%

**Q.** And the “Alpha signal normalised to Maximum/Minimum (inhibition)” value (BCL-xL Rep-1, 0.0195312 uM, 0.0195312 µM)?
**A.** 73.9595

**Q.** And the inhibition at 0.0195312 µM (BCL-xL Rep-1, 0.0195312 uM)?
**A.** 70.8%

**Q.** What about the “Alpha signal normalised to Maximum/Minimum (inhibition)” value (BCL-xL Rep-1, 0.078125 uM, 0.078125 µM) of the same compound?
**A.** 89.8384

**Q.** And the inhibition at 0.078125 µM (BCL-xL Rep-1, 0.078125 uM)?
**A.** 90.1%

**Q.** What about the “Alpha signal normalised to Maximum/Minimum (inhibition)” value (BCL-xL Rep-1, 0.3125 uM, 0.3125 µM) of the same compound?
**A.** 98.7717

**Q.** What about the inhibition at 0.3125 µM (BCL-xL Rep-1, 0.3125 uM) of the same compound?
**A.** 97.2%

**Q.** What about the “Alpha signal normalised to Maximum/Minimum (inhibition)” value (BCL-xL Rep-1, 1.25 uM, 1.25 µM) of the same compound?
**A.** 99.2115

**Q.** And the inhibition at 1.25 µM (BCL-xL Rep-1, 1.25 uM)?
**A.** 98.7%

**Q.** What about the “Alpha signal normalised to Maximum/Minimum (inhibition)” value (BCL-xL Rep-1, 5 uM, 5 µM) of the same compound?
**A.** 98.674

**Q.** What about the inhibition at 5 µM (BCL-xL Rep-1, 5 uM) of the same compound?
**A.** 99.7%

**Q.** What about the “Alpha signal (raw counts)” value (BCL-xL Rep-1, plate row B, 5 uM) of the same compound?
**A.** 24284 and 38579

**Q.** And the “Alpha signal (raw counts)” value (BCL-xL Rep-1, plate row C, 1.25 uM)?
**A.** 38335 and 30879

**Q.** And the “Alpha signal (raw counts)” value (BCL-xL Rep-1, plate row D, 0.3125 uM)?
**A.** 59200 and 37180

**Q.** And the “Alpha signal (raw counts)” value (BCL-xL Rep-1, plate row E, 0.078125 uM)?
**A.** 160796 and 165155

**Q.** What about the “Alpha signal (raw counts)” value (BCL-xL Rep-1, plate row F, 0.0195312 uM) of the same compound?
**A.** 437862 and 392628

**Q.** And the “Alpha signal (raw counts)” value (BCL-xL Rep-1, plate row G, 0.00488281 uM)?
**A.** 787377 and 721620

**Q.** And the “Alpha signal (raw counts)” value (BCL-xL Rep-1, plate row H, 0.0012207 uM)?
**A.** 1053850 and 1038882

**Q.** And the “Alpha signal (raw counts)” value (BCL-xL Rep-1, plate row I, 0.000305176 uM)?
**A.** 993971 and 1044138

**Q.** And the “Alpha signal (raw counts)” value (BCL-xL Rep-1, plate row J, 7.62939e-5 uM)?
**A.** 1100587 and 1144199

**Q.** And the “Alpha signal (raw counts)” value (BCL-xL Rep-1, plate row K, 1.90735e-5 uM)?
**A.** 1236998 and 1302696

**Q.** And the “Alpha signal (raw counts)” value (BCL-xL Rep-2, 7.62939e-5 uM)?
**A.** 1461205 and 1360749

**Q.** And the “Alpha signal normalised to Maximum/Minimum (inhibition)” value (BCL-xL Rep-2, 0.000305176 uM, 0.000305176 µM)?
**A.** 14.6957

**Q.** And the inhibition at 0.000305176 µM (BCL-xL Rep-2, 0.000305176 uM)?
**A.** 13%

**Q.** What about the “Alpha signal normalised to Maximum/Minimum (inhibition)” value (BCL-xL Rep-2, 0.0012207 uM, 0.0012207 µM) of the same compound?
**A.** 16.3472

**Q.** What about the inhibition at 0.0012207 µM (BCL-xL Rep-2, 0.0012207 uM) of the same compound?
**A.** 24%

**Q.** What about the “Alpha signal normalised to Maximum/Minimum (inhibition)” value (BCL-xL Rep-2, 0.00488281 uM, 0.00488281 µM) of the same compound?
**A.** 45.5298

**Q.** What about the inhibition at 0.00488281 µM (BCL-xL Rep-2, 0.00488281 uM) of the same compound?
**A.** 46%

**Q.** What about the “Alpha signal normalised to Maximum/Minimum (inhibition)” value (BCL-xL Rep-2, 0.0195312 uM, 0.0195312 µM) of the same compound?
**A.** 63.2992

**Q.** What about the inhibition at 0.0195312 µM (BCL-xL Rep-2, 0.0195312 uM) of the same compound?
**A.** 60.9%

**Q.** What about the “Alpha signal normalised to Maximum/Minimum (inhibition)” value (BCL-xL Rep-2, 0.078125 uM, 0.078125 µM) of the same compound?
**A.** 91.4929

**Q.** And the inhibition at 0.078125 µM (BCL-xL Rep-2, 0.078125 uM)?
**A.** 89.7%

**Q.** What about the “Alpha signal normalised to Maximum/Minimum (inhibition)” value (BCL-xL Rep-2, 0.3125 uM, 0.3125 µM) of the same compound?
**A.** 98.2227

**Q.** What about the inhibition at 0.3125 µM (BCL-xL Rep-2, 0.3125 uM) of the same compound?
**A.** 97.4%

**Q.** And the “Alpha signal normalised to Maximum/Minimum (inhibition)” value (BCL-xL Rep-2, 1.25 uM, 1.25 µM)?
**A.** 99.5826

**Q.** What about the inhibition at 1.25 µM (BCL-xL Rep-2, 1.25 uM) of the same compound?
**A.** 100%

**Q.** What about the “Alpha signal normalised to Maximum/Minimum (inhibition)” value (BCL-xL Rep-2, 5 uM, 5 µM) of the same compound?
**A.** 99.8318

**Q.** And the inhibition at 5 µM (BCL-xL Rep-2, 5 uM)?
**A.** 99%

**Q.** And the “Alpha signal (raw counts)” value (BCL-xL Rep-2, plate row B, 5 uM)?
**A.** 36635 and 25525

**Q.** And the “Alpha signal (raw counts)” value (BCL-xL Rep-2, plate row C, 1.25 uM)?
**A.** 22256 and 28959

**Q.** What about the “Alpha signal (raw counts)” value (BCL-xL Rep-2, plate row D, 0.3125 uM) of the same compound?
**A.** 58501 and 47695

**Q.** What about the “Alpha signal (raw counts)” value (BCL-xL Rep-2, plate row E, 0.078125 uM) of the same compound?
**A.** 165323 and 140416

**Q.** What about the “Alpha signal (raw counts)” value (BCL-xL Rep-2, plate row F, 0.0195312 uM) of the same compound?
**A.** 561843 and 528857

**Q.** What about the “Alpha signal (raw counts)” value (BCL-xL Rep-2, plate row G, 0.00488281 uM) of the same compound?
**A.** 767546 and 773677

**Q.** And the “Alpha signal (raw counts)” value (BCL-xL Rep-2, plate row H, 0.0012207 uM)?
**A.** 1070160 and 1175743

**Q.** And the “Alpha signal (raw counts)” value (BCL-xL Rep-2, plate row I, 0.000305176 uM)?
**A.** 1221423 and 1198497
